From ChEMBL document CHEMBL3779887, “Robenidine Analogues as Gram-Positive Antibacterial Agents” (J Med Chem, 2016)
≈ marks a conversion by molar mass, not a printed value. Calls of active or inactive are those of the source. The rule behind the calls is not given here.

Experiments:
[1] = Cytotoxicity against human HepG2 cells after 24 hrs by WST-1 based colorimetric assay; assay type: cell-based
[2] = system: Staphylococcus aureus; test: Antibacterial activity against methicillin-resistant Staphylococcus aureus after 20 to 24 hrs; assay type: functional
[3] = system: Enterococcus; test: Antibacterial activity against vancomycin-resistant Enterococcus after 20 to 24 hrs; assay type: functional
[4] = system: Escherichia coli; test: Antibacterial activity against Escherichia coli ATCC 25922 after 20 to 24 hrs; assay type: functional
[5] = system: Pseudomonas aeruginosa; test: Antibacterial activity against Pseudomonas aeruginosa ATCC 27853 after 20 to 24 hrs; assay type: functional
[6] = system: Staphylococcus aureus; test: Antibacterial activity against methicillin-resistant Staphylococcus aureus clinical isolate after 20 to 24 hrs; assay type: functional
[7] = system: Staphylococcus aureus; test: Antibacterial activity against Staphylococcus aureus ATCC 29213 after 20 to 24 hrs in presence of 2% heat inactivated bovine serum; assay type: functional
[8] = system: Staphylococcus aureus; test: Bactericidal activity against methicillin-resistant Staphylococcus aureus clinical isolate after 24 and 48 hrs; assay type: functional
[9] = system: Escherichia coli; test: Antibacterial activity against Escherichia coli ATCC 25922 after 20 to 24 hrs in presence of polymyxin B nonapeptide; assay type: functional
[10] = system: Pseudomonas aeruginosa; test: Antibacterial activity against Pseudomonas aeruginosa ATCC 27853 after 20 to 24 hrs in presence of polymyxin B nonapeptide; assay type: functional
[11] = system: Staphylococcus aureus; test: Bactericidal activity against methicillin-sensitive Staphylococcus aureus ATCC 29213 assessed as log reduction in bacterial cell number at MIC after 8 hrs by time-kill curve analysis; assay type: functional
[12] = system: Staphylococcus aureus; test: Bactericidal activity against methicillin-sensitive Staphylococcus aureus ATCC 29213 assessed as log reduction in bacterial cell number at 2 times MIC after 8 hrs by time-kill curve analysis; assay type: functional
[13] = system: Staphylococcus aureus; test: Bactericidal activity against methicillin-sensitive Staphylococcus aureus ATCC 29213 assessed as log reduction in bacterial cell number at 4 times MIC after 8 hrs by time-kill curve analysis; assay type: functional
[14] = system: Staphylococcus aureus; test: Bactericidal activity against methicillin-sensitive Staphylococcus aureus ATCC 29213 assessed as log reduction in bacterial cell number at 8 times MIC after 8 hrs by time-kill curve analysis; assay type: functional
[15] = system: Staphylococcus aureus; test: Bactericidal activity against methicillin-sensitive Staphylococcus aureus clinical isolate USA300 assessed as log reduction in bacterial cell number at MIC after 8 hrs by time-kill curve analysis; assay type: functional
[16] = system: Staphylococcus aureus; test: Bactericidal activity against […] Staphylococcus aureus clinical isolate USA300 assessed as log reduction in bacterial cell number at 2 times MIC after 8 hrs by time-kill curve analysis; assay type: functional
[17] = system: Staphylococcus aureus; test: Bactericidal activity against […] Staphylococcus aureus clinical isolate USA300 assessed as log reduction in bacterial cell number at 4 times MIC after 8 hrs by time-kill curve analysis; assay type: functional
[18] = system: Staphylococcus aureus; test: Bactericidal activity against […] Staphylococcus aureus clinical isolate USA300 assessed as log reduction in bacterial cell number at 8 times MIC after 8 hrs by time-kill curve analysis; assay type: functional
[19] = system: Staphylococcus aureus; test: Bactericidal activity against Methicillin-sensitive Staphylococcus aureus ATCC 29213 assessed as log reduction in bacterial cell number at 2 times MIC after 24 hrs by time kill curve analysis; assay type: functional, organism-based
[20] = system: Staphylococcus aureus; test: Bactericidal activity against Methicillin-sensitive Staphylococcus aureus ATCC 29213 assessed as log reduction in bacterial cell number at 4 times MIC after 24 hrs by time kill curve analysis; assay type: functional, organism-based
[21] = system: Staphylococcus aureus; test: Bactericidal activity against Methicillin-sensitive Staphylococcus aureus ATCC 29213 assessed as log reduction in bacterial cell number at 8 times MIC after 24 hrs by time-kill curve analysis; assay type: functional, organism-based
[22] = system: Staphylococcus aureus; test: Bactericidal activity against […] Staphylococcus aureus clinical isolate USA300 assessed as log reduction in bacterial cell number at MIC after 24 hrs by time-kill curve analysis; assay type: functional, organism-based
[23] = system: Staphylococcus aureus; test: Bactericidal activity against […] Staphylococcus aureus clinical isolate USA300 assessed as log reduction in bacterial cell number at 2 times MIC after 24 hrs by time-kill curve analysis; assay type: functional, organism-based
[24] = system: Staphylococcus aureus; test: Bactericidal activity against […] Staphylococcus aureus clinical isolate USA300 assessed as log reduction in bacterial cell number at 4 times MIC after 24 hrs by time-kill curve analysis; assay type: functional, organism-based
[25] = system: Staphylococcus aureus; test: Bactericidal activity against […] Staphylococcus aureus clinical isolate USA300 assessed as log reduction in bacterial cell number at 8 times MIC after 24 hrs by time-kill curve analysis; assay type: functional, organism-based
[26] = Toxicity in sheep erythrocytes assessed as hemolysis at 600 uM after 30 mins; assay type: cell-based, Ovis aries; conditions: erythrocyte, 0.5 h
[27] = Cytotoxicity against human HEL299 cells after 24 hrs by WST-1 based colorimetric assay; assay type: cell-based, HEL 299
[28] = Lipophilicity, logD of the compound at pH 3; assay type: physicochemical; conditions: buffer
[29] = Lipophilicity, logD of the compound at pH 7.4; assay type: physicochemical; conditions: buffer
[30] = Solubility of the compound at pH 2; assay type: physicochemical; conditions: buffer
[31] = Solubility of the compound at pH 6.5; assay type: physicochemical; conditions: buffer
[32] = Half life of compound in human liver microsomes; assay type: ADME
[33] = Half life of compound in mouse liver microsomes; assay type: ADME
[34] = Intrinsic clearance in human liver microsomes assessed per mg of protein; assay type: ADME; conditions: read-out: CLH
[35] = Intrinsic clearance in mouse liver microsomes assessed per mg of protein; assay type: ADME; conditions: read-out: CLH
[36] = Selectivity index, ratio of GI50 for human HEL299 cells to MIC50 for methicillin-sensitive Staphylococcus aureus clinical isolate; assay type: functional, HEL 299
[37] = Selectivity index, ratio of GI50 for human HEL299 cells to MIC50 for methicillin-resistant Staphylococcus aureus clinical isolate; assay type: functional, HEL 299
[38] = Selectivity index, ratio of GI50 for human HepG2 cells to MIC50 for methicillin-sensitive Staphylococcus aureus clinical isolate; assay type: functional
[39] = Selectivity index, ratio of GI50 for human HepG2 cells to MIC50 for methicillin-resistant Staphylococcus aureus clinical isolate; assay type: functional
[40] = system: Staphylococcus aureus; test: Antibacterial activity against methicillin-sensitive Staphylococcus aureus ATCC 25923 after 20 to 24 hrs; assay type: functional
[41] = system: Staphylococcus aureus; test: Antibacterial activity against methicillin-sensitive Staphylococcus aureus ATCC 6538 after 20 to 24 hrs; assay type: functional
[42] = system: Staphylococcus aureus; test: Antibacterial activity against methicillin-sensitive Staphylococcus aureus ATCC 49775 after 20 to 24 hrs; assay type: functional
[43] = system: Staphylococcus aureus; test: Antibacterial activity against methicillin-sensitive Staphylococcus aureus ATCC 29213 after 20 to 24 hrs; assay type: functional
[44] = system: Staphylococcus aureus; test: Antibacterial activity against methicillin-sensitive Staphylococcus aureus ATCC 6538 after 20 to 24 hrs in presence of 50% heat inactivated bovine serum; assay type: functional
[45] = system: Staphylococcus aureus; test: Antibacterial activity against methicillin-sensitive Staphylococcus aureus ATCC 49775 after 20 to 24 hrs in presence of 50% heat inactivated bovine serum; assay type: functional
[46] = system: Staphylococcus aureus; test: Antibacterial activity against methicillin-sensitive Staphylococcus aureus ATCC 29213 after 20 to 24 hrs in presence of 50% heat inactivated bovine serum; assay type: functional
[47] = system: Staphylococcus aureus; test: Bactericidal activity against methicillin-sensitive Staphylococcus aureus ATCC 25923 after 24 and 48 hrs; assay type: functional
[48] = system: Staphylococcus aureus; test: Bactericidal activity against methicillin-sensitive Staphylococcus aureus ATCC 6538 after 24 and 48 hrs; assay type: functional
[49] = system: Staphylococcus aureus; test: Bactericidal activity against methicillin-sensitive Staphylococcus aureus ATCC 49775 after 24 and 48 hrs; assay type: functional
[50] = system: Staphylococcus aureus; test: Bactericidal activity against methicillin-sensitive Staphylococcus aureus ATCC 29213 after 24 and 48 hrs; assay type: functional
[51] = system: Staphylococcus aureus; test: Ratio of MBC for methicillin-sensitive Staphylococcus aureus ATCC 25923 to MIC90 for methicillin-sensitive Staphylococcus aureus ATCC 25923; assay type: functional
[52] = system: Staphylococcus aureus; test: Ratio of MBC for methicillin-sensitive Staphylococcus aureus ATCC 6538 to MIC90 for methicillin-sensitive Staphylococcus aureus ATCC 6538; assay type: functional
[53] = system: Staphylococcus aureus; test: Ratio of MBC for methicillin-sensitive Staphylococcus aureus ATCC 49775 to MIC90 for methicillin-sensitive Staphylococcus aureus ATCC 49775; assay type: functional
[54] = system: Staphylococcus aureus; test: Ratio of MBC for methicillin-sensitive Staphylococcus aureus ATCC 29213 to MIC90 for methicillin-sensitive Staphylococcus aureus ATCC 29213; assay type: functional
[55] = system: Staphylococcus aureus; test: Antibacterial activity against methicillin-sensitive Staphylococcus aureus ATCC 29213 after 20 to 24 hrs in presence of 50% heat inactivated bovine serum
[56] = system: Staphylococcus aureus; test: as above; remark: listed apart in the source
[57] = system: Staphylococcus aureus; test: Bactericidal activity against Methicillin-sensitive Staphylococcus aureus ATCC 29213 assessed as log reduction in bacterial cell number at MIC after 8 hrs by time kill curve analysis
[58] = Selectivity ratio of MIC for methicillin-resistant Staphylococcus aureus to MIC for vancomycin-resistant Enterococcus; assay type: functional

CC(C)(C)c1ccc(/C=N/NC(=N)N/N=C/c2ccc(C(C)(C)C)cc2)cc1
GI50 at 24 h [1]: 26.3 µM | MIC [2]: 24.2 µM (≈ 9.14 µg/mL) | MIC [3]: 29 µM (≈ 10.9 µg/mL) | MIC [4]: > 400 µM | MIC [5]: > 400 µM | MIC90 [6]: 4.8 µM (≈ 1.81 µg/mL) | MIC90 [7]: 38.6 µM | MBC [8]: 4.8 µM (≈ 1.81 µg/mL) | MIC90 [9]: > 250 µM | MIC90 [10]: > 250 µM | Activity [11]: >=4 log10CFU/ml | Activity [12]: >=4 log10CFU/ml | Activity [13]: >=4 log10CFU/ml | Activity [14]: >=4 log10CFU/ml | Activity [15]: >=4 log10CFU/ml | Activity [16]: >=4 log10CFU/ml | Activity [17]: >=4 log10CFU/ml | Activity [18]: >=4 log10CFU/ml | Activity [19]: inactive | Activity [20]: inactive | Activity [21]: inactive | Activity [22]: inactive | Activity [23]: inactive | Activity [24]: inactive | Activity [25]: inactive | Activity [26]: Non-toxic | GI50 at 24 h [27]: 28.8 µM | logD [28]: 4.9 | logD [29]: > 5.3 | solubility [30]: < 1.6 µg/mL | solubility [31]: < 1.6 µg/mL | half-life [32]: 20 min | half-life [33]: 25 min | microsomal CLint [34]: 89 µL/min/mg | microsomal CLint [35]: 70 µL/min/mg | Selectivity Index [36]: 2 | Selectivity Index [37]: 2 | Selectivity Index [38]: 2 | Selectivity Index [39]: 2 | MIC90 [40]: 4.8 µM (≈ 1.81 µg/mL) | MIC90 [41]: 4.8 µM (≈ 1.81 µg/mL) | MIC90 [42]: 4.8 µM (≈ 1.81 µg/mL) | MIC90 [43]: 4.8 µM (≈ 1.81 µg/mL) | MIC90 [44]: > 250 µM | MIC90 [45]: > 250 µM | MIC90 [46]: > 250 µM | MBC [47]: 4.8 µM (≈ 1.81 µg/mL) | MBC [48]: 4.8 µM (≈ 1.81 µg/mL) | MBC [49]: 4.8 µM (≈ 1.81 µg/mL) | MBC [50]: 4.8 µM (≈ 1.81 µg/mL) | Ratio [51]: 1 | Ratio [52]: 1 | Ratio [53]: 1 | Ratio [54]: 1 | MIC90 [55]: > 250 µM | MIC90 [56]: > 250 µM | Activity [57]: inactive

N=C(N/N=C/c1cccc(Br)c1)N/N=C/c1cccc(Br)c1
MIC [2]: > 400 µM | MIC [3]: 15.4 µM (≈ 6.52 µg/mL) | MIC [4]: > 400 µM | MIC [5]: > 400 µM | Selectivity ratio [58]: 10
